Measured values from ChEMBL document CHEMBL1201862, “PubChem BioAssay data set” (2004).
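Interpolation was linear, between the two tested concentrations surrounding the appropriate level; five concentrations were tested over 48 hours in 96-well plates. At the GI50, growth is halved.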 The source made the active and inactive calls. Cut-off read from the data, not from the text of the source: active = GI50 up to about 1.1 µM and inactive = higher.

Key:
Assay in all cases: NCI anticancer screen, dose series, 48 h
[1] = system: IGROV-1
[2] = system: HL-60
[3] = system: U-251
[4] = system: HCT-116
[5] = system: MDA-MB-231
[6] = system: SN12C
[7] = system: SK-MEL-5
[8] = system: SK-OV-3
[9] = system: UACC-62
[10] = system: A549
[11] = system: SF-295
[12] = system: HCT-15
[13] = system: NCI/ADR-RES
[14] = system: CAKI-1
[15] = system: NCI-H460
[16] = system: MCF7
[17] = system: SK-MEL-28
[18] = system: HOP-92
[19] = system: SF-268
[20] = system: Malme-3M

C[C@@H](c1ccccc1)N1CO[C@@]2(C#Cc3ccc4c(c3)OCO4)CCC[C@@H]12
GI50 [1]: 10.7 µM (inactive)
GI50 [2]: 7.94 µM (inactive)
GI50 [3]: 13.6 µM (inactive)
GI50 [4]: 12 µM (inactive)
GI50 [5]: 13.3 µM (inactive)
GI50 [6]: 17.1 µM (inactive)
GI50 [7]: 13.1 µM (inactive)
GI50 [8]: 17.4 µM (inactive)
GI50 [9]: > 100 µM (inactive)
GI50 [10]: 14.8 µM (inactive)
GI50 [11]: 14.9 µM (inactive)
GI50 [12]: 12.6 µM
GI50 [13]: 14.7 µM (inactive)
GI50 [14]: 16.3 µM (inactive)
GI50 [15]: 13.3 µM (inactive)
GI50 [16]: > 100 µM (inactive)
GI50 [17]: 17.5 µM (inactive)
GI50 [18]: 5.3 µM (inactive)

Nc1ccc2c(c1)S(=O)(=O)c1cc(O)ccc1O2
GI50 [1]: > 100 µM (inactive)
GI50 [2]: > 100 µM (inactive)
GI50 [3]: > 100 µM (inactive)
GI50 [4]: > 100 µM (inactive)
GI50 [5]: > 100 µM (inactive)
GI50 [6]: > 100 µM (inactive)
GI50 [7]: > 100 µM (inactive)
GI50 [8]: > 100 µM (inactive)
GI50 [9]: > 100 µM (inactive)
GI50 [10]: > 100 µM (inactive)
GI50 [11]: > 100 µM (inactive)
GI50 [19]: > 100 µM (inactive)
GI50 [12]: > 100 µM
GI50 [13]: > 100 µM (inactive)
GI50 [14]: 45.2 µM (inactive)
GI50 [15]: > 100 µM (inactive)
GI50 [16]: > 100 µM (inactive)
GI50 [17]: > 100 µM (inactive)
GI50 [18]: > 100 µM (inactive)

Cc1ccc(/N=N/C(=N\c2ccc(Cl)cc2)c2ccc(N(CCC#N)CCC#N)cc2)cc1
GI50 [1]: 30.3 µM (inactive)
GI50 [3]: 25.2 µM (inactive)
GI50 [4]: 49 µM (inactive)
GI50 [5]: 25.8 µM (inactive)
GI50 [6]: 40.9 µM (inactive)
GI50 [7]: 2.63 µM (inactive)
GI50 [8]: > 100 µM (inactive)
GI50 [9]: 11.8 µM (inactive)
GI50 [10]: 29.6 µM (inactive)
GI50 [11]: 3.98 µM (inactive)
GI50 [19]: 48.1 µM (inactive)
GI50 [12]: 14.2 µM
GI50 [13]: 57.8 µM (inactive)
GI50 [14]: > 100 µM (inactive)
GI50 [15]: 18.1 µM (inactive)
GI50 [16]: 21.6 µM (inactive)
GI50 [17]: 85.5 µM (inactive)
GI50 [18]: 46.3 µM (inactive)

CC1=C(\C=C/C(C)=C/C=C/C(C)=C/C=C/C=C(C)\C=C\C=C(C)/C=C/C2=C(C)CCCC2(C)C)C(C)(C)CCC1
GI50 [1]: > 100 µM (inactive)
GI50 [3]: 56.2 µM (inactive)
GI50 [4]: 22.1 µM (inactive)
GI50 [5]: > 100 µM (inactive)
GI50 [6]: > 100 µM (inactive)
GI50 [7]: > 100 µM (inactive)
GI50 [8]: > 100 µM (inactive)
GI50 [9]: > 100 µM (inactive)
GI50 [10]: > 10 µM (inactive)
GI50 [20]: > 100 µM (inactive)
GI50 [11]: > 100 µM (inactive)
GI50 [19]: > 100 µM (inactive)
GI50 [12]: > 100 µM
GI50 [13]: > 100 µM (inactive)
GI50 [15]: > 100 µM (inactive)
GI50 [16]: 75.2 µM (inactive)
GI50 [17]: 46.5 µM (inactive)

CC(=O)OCC(C)(COC(C)=O)N1C(=O)C2C3c4ccccc4C(c4ccccc43)C2C1=O (stereo not drawn)
GI50 [1]: > 100 µM (inactive)
GI50 [2]: > 100 µM (inactive)
GI50 [3]: > 100 µM (inactive)
GI50 [4]: 33 µM (inactive)
GI50 [5]: > 100 µM (inactive)
GI50 [7]: > 100 µM (inactive)
GI50 [8]: > 100 µM (inactive)
GI50 [9]: > 100 µM (inactive)
GI50 [10]: > 100 µM (inactive)
GI50 [11]: > 100 µM (inactive)
GI50 [19]: > 100 µM (inactive)
GI50 [12]: > 100 µM
GI50 [14]: > 100 µM (inactive)
GI50 [15]: > 100 µM (inactive)
GI50 [16]: > 100 µM (inactive)
GI50 [18]: > 100 µM (inactive)

O=C(/C=C/c1ccc(Cl)cc1)c1cccs1
GI50 [1]: 29.9 µM (inactive)
GI50 [2]: 7.19 µM (inactive)
GI50 [3]: 16 µM (inactive)
GI50 [4]: 14.8 µM (inactive)
GI50 [5]: 20 µM (inactive)
GI50 [6]: 16.5 µM (inactive)
GI50 [7]: 18.2 µM (inactive)
GI50 [8]: 26.4 µM (inactive)
GI50 [9]: 21 µM (inactive)
GI50 [10]: 29.1 µM (inactive)
GI50 [20]: 16.6 µM (inactive)
GI50 [11]: 20 µM (inactive)
GI50 [19]: 29.7 µM (inactive)
GI50 [12]: 17.5 µM
GI50 [13]: 24.3 µM (inactive)
GI50 [14]: 24 µM (inactive)
GI50 [15]: 18.4 µM (inactive)
GI50 [16]: 3.62 µM (inactive)
GI50 [17]: 26.2 µM (inactive)

COc1cc([C@@H]2c3cc4c(cc3[C@@H](/N=C/c3ccc(C(=O)O[C@H]5C[C@H]6OC[C@@]6(OC(C)=O)[C@H]6[C@H](OC(=O)c7ccccc7)[C@]7(O)C[C@H](OC(=O)[C@H](OC(=O)c8ccc(/C=N/[C@@H]9c%10cc%11c(cc%10[C@@H](c%10cc(OC)c(O)c(OC)c%10)[C@H]%10C(=O)OC[C@@H]%109)OCO%11)cc8)[C@@H](NC(=O)c8ccccc8)c8ccccc8)C(C)=C([C@@H](OC(C)=O)C(=O)[C@]56C)C7(C)C)cc3)C3COC(=O)C32)OCO4)cc(C)c1O (stereo partly drawn)
GI50 [1]: 14.7 µM (inactive)
GI50 [2]: > 13.9 µM (inactive)
GI50 [3]: 13.3 µM (inactive)
GI50 [4]: 9.08 µM (inactive)
GI50 [5]: > 25.2 µM (inactive)
GI50 [6]: 18.8 µM (inactive)
GI50 [7]: 5.28 µM (inactive)
GI50 [8]: 9.2 µM (inactive)
GI50 [9]: 6.32 µM (inactive)
GI50 [10]: 13.7 µM (inactive)
GI50 [20]: > 24 µM (inactive)
GI50 [11]: 5.07 µM (inactive)
GI50 [19]: > 31.5 µM (inactive)
GI50 [12]: 19.2 µM
GI50 [13]: 15.2 µM (inactive)
GI50 [14]: 12.8 µM (inactive)
GI50 [15]: 15.3 µM (inactive)
GI50 [16]: 7.6 µM (inactive)
GI50 [17]: > 18.1 µM (inactive)

O=C1CSC2=NC3=C(COC/C3=C\c3ccc(F)cc3)C(c3ccc(F)cc3)N12 (stereo not drawn)
GI50 [1]: 86.7 µM (inactive)
GI50 [2]: 12.6 µM (inactive)
GI50 [3]: 63.7 µM (inactive)
GI50 [4]: 35.9 µM (inactive)
GI50 [5]: > 100 µM (inactive)
GI50 [6]: > 100 µM (inactive)
GI50 [7]: 71.4 µM (inactive)
GI50 [8]: > 100 µM (inactive)
GI50 [9]: > 100 µM (inactive)
GI50 [11]: 52.5 µM (inactive)
GI50 [19]: > 100 µM (inactive)
GI50 [12]: 37.2 µM
GI50 [13]: 58.9 µM (inactive)
GI50 [14]: > 100 µM (inactive)
GI50 [15]: 38.1 µM (inactive)
GI50 [16]: 42 µM (inactive)
GI50 [18]: 93.5 µM (inactive)

COC(=O)C(Cc1ccccc1)NP(=O)(O)OCC1OC(n2cc(F)c(=O)[nH]c2=O)CC1O (stereo not drawn)
GI50 [1]: > 22.5 µM (inactive)
GI50 [2]: 10.5 µM (inactive)
GI50 [3]: 8.99 µM (inactive)
GI50 [4]: 5.53 µM (inactive)
GI50 [5]: > 100 µM (inactive)
GI50 [6]: 10.4 µM (inactive)
GI50 [7]: 15.3 µM (inactive)
GI50 [8]: 61.4 µM (inactive)
GI50 [9]: 7 µM (inactive)
GI50 [10]: 0.955 µM (active)
GI50 [20]: > 100 µM (inactive)
GI50 [11]: 3.72 µM (inactive)
GI50 [19]: 1.75 µM (inactive)
GI50 [12]: > 100 µM
GI50 [13]: 5.7 µM (inactive)
GI50 [14]: 3.72 µM (inactive)
GI50 [15]: 0.236 µM (active)
GI50 [16]: 0.317 µM (active)
GI50 [17]: > 67 µM (inactive)

CN(C)CCNC(=O)c1cccc2c(NC(CCCNC(=N)N)C(=O)O)c3ccccc3[n+](C)c12 (stereo not drawn)
GI50 [1]: 59 µM (inactive)
GI50 [3]: > 100 µM (inactive)
GI50 [4]: 45.6 µM (inactive)
GI50 [5]: 37.1 µM (inactive)
GI50 [6]: 32.4 µM (inactive)
GI50 [7]: 40.1 µM (inactive)
GI50 [8]: > 100 µM (inactive)
GI50 [9]: > 100 µM (inactive)
GI50 [10]: 78.5 µM (inactive)
GI50 [20]: 86.7 µM (inactive)
GI50 [11]: > 100 µM (inactive)
GI50 [19]: 29 µM (inactive)
GI50 [12]: > 100 µM
GI50 [13]: 27.7 µM (inactive)
GI50 [15]: 49.3 µM (inactive)
GI50 [16]: 45.4 µM (inactive)
GI50 [17]: > 100 µM (inactive)

N#Cc1nc(C(CO)N(Cc2ccccc2)C(=O)O)oc1N (stereo not drawn)
GI50 [1]: > 100 µM (inactive)
GI50 [2]: > 100 µM (inactive)
GI50 [3]: > 100 µM (inactive)
GI50 [4]: > 100 µM (inactive)
GI50 [5]: > 100 µM (inactive)
GI50 [6]: > 100 µM (inactive)
GI50 [7]: > 100 µM (inactive)
GI50 [8]: > 100 µM (inactive)
GI50 [9]: > 100 µM (inactive)
GI50 [10]: > 100 µM (inactive)
GI50 [11]: > 100 µM (inactive)
GI50 [19]: > 100 µM (inactive)
GI50 [12]: > 100 µM
GI50 [13]: > 100 µM (inactive)
GI50 [14]: > 100 µM (inactive)
GI50 [15]: > 100 µM (inactive)
GI50 [16]: > 100 µM (inactive)
GI50 [17]: > 100 µM (inactive)
GI50 [18]: > 100 µM (inactive)
